# In patent US10695334B2, “Heteroaromatic carboxamide derivatives as plasma kallikrein inhibitors” (Boehringer Ingelheim International GmbH, priority 2018, dated 2020):
# Columns and labels:
# Type in all cases: biochemical
# Human PKK [1] = biological target: T1, Human PKK (Homo sapiens (Human), UniProt P03952); assay: Inhibition of PKK (Ki), kinetic assay; settings: 24° C., IC50 corrected for KM
# Protocol: Measurements were performed in a kinetic interval every 2nd minute for 16 min using a Spectramax M5 (Molecular Devices) with the following settings of the wavelength excitation of 350 nm and wavelength emission of 450 nm. The number of the compound corresponds to the number of the Example in the experimental section.
# The pIC50 values were then fitted using a four-parametric fitting procedure using GraphPad Prism (version 6; GraphPad Software, Inc.).
# (§1) Where the IC50 is in molar and the KM value in mM.
# human TK1 = human TK1 (Homo sapiens (Human), UniProt P06870); assay: Inhibition of TK1 (Ki); settings: column head prints IC50, text above the table says Ki values
# Protocol: The ability of compounds of formula (I) to inhibit plasma kallikrein (PKK), Factor Xlla (FXIIa), Factor Xla (FXIa), Factor Xa (FXa), Factor Ila (alpha-thrombin; FIIa), plasmin, trypsin, tissue kallikrein 1 (TK1), Factor VIIa (FVIIa), or FVIIa complexed with Tissue Factor, phospholipids and CaCl2 (FVIIa/TF/PL/CaCl2) was determined using the following biochemical assays in assay buffer (100 mM Tris, 150 mM NaCL, adjusted to a pH of 7.8 with HCl, and containing 0.1% (w/v) BSA and 0.05% (v/v) Tween20) in the presence of 1% (v/v) DMSO: EVALUATION OF THE INHIBITION OF PKK USING AN ENDPOINT ASSAY Human PKK (0.01 U/mL; Enzyme Research Laboratories) or rat PKK (0.625 nM; produced in-house) was incubated for 1 h at room temperature with 0.10 μM fluorogenic substrate H-Pro-Phe-Arg-AMC (11295 from Bachem) and various concentrations of the test compound in assay buffer. Subsequently, PPACK II (Calbiochem) was added as a stop solution to achieve a final concentration of 1 μM and fluorescence was measured using an Envision Reader (PerkinElmer) with the wavelength excitation setting of 355 nm and the wavelength emission setting of 460 nm.
# Prior to the assay, human TK1 (R&D Systems) was activated by incubation with human trypsin (Calbiochem) in a 1:10,000 ratio for 15 min at 37° C. For assaying TK1 inhibitory activity, activated TK1 (31.25 nM or 1 U/mL) was incubated at 24° C. with 0.1 mM fluorogenic substrate H-Pro-Phe-Arg-AMC (11295 from Bachem) and various concentrations of the test compound in assay buffer. Measurements were performed in a kinetic interval every 2nd minute for 16 min using a Spectramax M5 (Molecular Devices) with the following settings of the wavelength excitation of 350 nm and wavelength emission of 450 nm.
# The average Vmax values for the time interval from 2 to 12 min after initiation of the assay (expressed as either delta OD/min for assays using a chromogenic substrate or delta RFU/min for assays using a fluorigenic substrate, respectively) were plotted versus the Log of the concentration in molar of the evaluated inhibitor compound. The pIC50 values were then fitted using a four-parametric fitting procedure using GraphPad Prism (version 6; GraphPad Software, Inc.). Respective Ki values were obtained by correction of the IC50 values for the respective KM value of the used substrate (see Table A for the obtained KM values of the used substrates) using the following formula: […]
# as §1
# [2] = biological target: PKK in kaolin activated human platelet poor plasma (Homo sapiens (Human), UniProt P03952); assay: Inhibition of PKK in kaolin activated human PPP; settings: global fit over 25, 75, 250, 750 μg/mL kaolin
# Protocol: Platelet poor plasma (PPP) obtained from human wholeblood, anticoagulated with Na-Citrat, was incubated with various concentrations of the test compound together with either 25, 75, 250, or 750 μg/mL kaolin in assay buffer for 20 min at 37° C. such that for each kaolin dose used a concentration response was obtained for the test compound.
# Human PKK [3] = biological target: T1, Human PKK; assay: Inhibition of PKK, endpoint assay (human PKK); settings: substrate H-Pro-Phe-Arg-AMC, 1 h room temperature
# Protocol: Subsequently, PPACK II (Calbiochem) was added as a stop solution to achieve a final concentration of 1 μM and fluorescence was measured using an Envision Reader (PerkinElmer) with the wavelength excitation setting of 355 nm and the wavelength emission setting of 460 nm.
# Sequence of human TK1 (P06870 25-262): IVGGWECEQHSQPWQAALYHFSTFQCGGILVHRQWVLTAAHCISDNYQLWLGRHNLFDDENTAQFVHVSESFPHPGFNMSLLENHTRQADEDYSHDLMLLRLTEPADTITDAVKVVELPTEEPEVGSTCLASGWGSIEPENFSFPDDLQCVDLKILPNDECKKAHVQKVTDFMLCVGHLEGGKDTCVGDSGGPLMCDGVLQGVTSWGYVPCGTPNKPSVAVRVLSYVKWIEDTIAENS
# T1 sequence (P03952 391-638): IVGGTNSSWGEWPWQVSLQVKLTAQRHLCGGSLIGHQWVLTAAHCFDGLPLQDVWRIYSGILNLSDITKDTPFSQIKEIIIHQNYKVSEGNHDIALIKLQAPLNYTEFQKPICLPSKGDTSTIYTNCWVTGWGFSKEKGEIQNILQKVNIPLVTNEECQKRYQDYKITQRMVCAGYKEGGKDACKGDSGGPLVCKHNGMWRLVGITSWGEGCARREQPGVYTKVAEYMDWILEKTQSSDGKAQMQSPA
# T1 sequence (P03952 20-390 partner): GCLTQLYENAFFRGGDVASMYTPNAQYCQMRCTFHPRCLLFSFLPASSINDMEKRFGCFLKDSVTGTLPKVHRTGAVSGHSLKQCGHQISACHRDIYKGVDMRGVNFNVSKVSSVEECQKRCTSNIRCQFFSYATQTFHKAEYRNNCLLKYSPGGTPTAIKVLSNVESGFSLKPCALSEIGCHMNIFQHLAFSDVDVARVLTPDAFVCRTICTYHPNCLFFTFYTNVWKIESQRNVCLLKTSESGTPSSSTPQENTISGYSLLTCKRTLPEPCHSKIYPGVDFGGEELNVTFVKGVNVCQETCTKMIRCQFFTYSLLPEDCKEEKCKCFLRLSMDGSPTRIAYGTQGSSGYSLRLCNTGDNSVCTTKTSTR
# Sequence of PKK in kaolin activated human platelet poor plasma (P03952 391-638): as the sequence (P03952 391-638) above
# Sequence of PKK in kaolin activated human platelet poor plasma (P03952 20-390 partner): as the sequence (P03952 20-390 partner) above
Ki (Human PKK [1]),IC50 (human TK1),IC90 [2],IC50 (Human PKK [3]),Structure (SMILES)
1 nM,> 10000 nM,708 nM,2 nM,"Cc1nc(N2CCC(C)(C#N)C2)ccc1Cn1cc(C(=O)N[C@@H]2CCc3c2n[nH]c3C)cn1 (stereo partly drawn) [Example 71, 1-{[6-(3-Cyano-3-methylpyrrolidin-1-yl)-2-methylpyridin-3-yl]methyl}-N-[(6R)-3-methyl-2H,4H,5H,6H-cyclopenta[c]pyrazol-6-yl]-1H-pyrazole-4-carboxamide]"
1 nM,> 10000 nM,302 nM,2 nM,"Cc1nc(N2CC3CC3C2)ccc1Cn1cc(C(=O)N[C@@H]2CCc3c2n[nH]c3C)nc1C (stereo partly drawn) [Example 97, 1-[(6-(3-Azabicyclo[3.1.0]hexan-3-yl}-2-methyl-pyridin-3-yl)methyl]-2-methyl-N-[(6R)-3-methyl-2H,4H,5H,6H-cyclopenta[c]pyrazol-6-yl]-1H-imidazole-4-carboxamide]"
2 nM,> 10000 nM,727 nM,2 nM,"Cc1nc(N2C[C@@H]3[C@H](C)[C@@H]3C2)ncc1Cn1cnc(C(=O)N[C@@H]2CCc3c2n[nH]c3C)c1 [Example 101, 1-({4-Methyl-2-[(1R,5S,6R)-6-methyl-3-azabicyclo[3.1.0]hexan-3-yl]pyrimidin-5-yl}methyl)-N-[(6R)-3-methyl-2H,4H,5H,6H-cyclopenta[c]-pyrazol-6-yl]-1H-imidazole-4-carboxamide]"
3 nM,> 10000 nM,416 nM,2 nM,"Cc1[nH]nc2c1CC[C@H]2NC(=O)c1cn(Cc2ccc(N3CC4CC4C3)nc2)cn1 (stereo partly drawn) [Example 103, 1-[(6-{3-Azabicyclo[3.1.0]hexan-3-yl}pyridin-3-yl)-methyl]-N-[(6R)-3-methyl-2H,4H,5H,6H-cyclo-penta[c]pyrazol-6-yl]-1H-imidazole-4-carboxamide]"
0.8 nM,> 10000 nM,303 nM,0.4 nM,"Cc1nc(N2C[C@@H]3[C@H](C)[C@@H]3C2)ccc1Cn1cnc(C(=O)N[C@@H]2CCc3c2n[nH]c3C)c1 [Example 100, N-[(6R)-3-Methyl-2H,4H,5H,6H-cyclopenta[c]-pyrazol-6-yl]-1-({2-methyl-6-[(1R,5S,6R)-6-methyl-3-azabicyclo[3.1.0]hexan-3-yl]pyridin-3-yl}methyl)-1H-imidazole-4-carboxamide]"

# Further lines, the molecule ahead of its results:
Structure (SMILES),Ki (Human PKK [1]),IC50 (human TK1),IC90 [2],IC50 (Human PKK [3])
"Cc1nc(N2CC3CC3C2)ccc1Cn1cc(C(=O)NC2CCc3c(C)n[nH]c32)cn1 (stereo not shown) [Example 1, 1-[(6-{3-Azabicyclo[3.1.0]hexan-3-yl}-2-methylpyridin-3-yl)methyl]-N-{3-methyl-1H,4H,5H,6H-cyclopenta[c]pyrazol-6-yl}-1H-pyrazole-4-carboxamide]",1 nM,> 10000 nM,705 nM,2 nM
"Cc1nc(N2CC3CC3C2)ccc1Cn1nnc(C(=O)N[C@@H]2CCc3c(C)n[nH]c32)n1 (stereo partly drawn) [Example 9, 2-[(6-{3-Azabicyclo[3.1.0]hexan-3-yl}-2-methylpyridin-3-yl)methyl]-N-[(6R)-3-methyl-1H,4H,5H,6H-cyclopenta[c]pyrazol-6-yl]-2H-1,2,3,4-tetrazole-5-carboxamide]",5 nM,> 10000 nM,3480 nM,7 nM
"Cc1nc(N2C[C@@H]3[C@H](C)[C@@H]3C2)ccc1Cn1cc(C(=O)N[C@@H]2CCc3c2n[nH]c3C)cn1 [Example 47, N-[(6R)-3-Methyl-2H,4H,5H,6H-cyclopenta[c]pyrazol-6-yl]-1-({2-methyl-6-[(1R,5S,6S)-6-methyl-3-azabicyclo[3.1.0]hexan-3-yl]pyridin-3-yl}methyl)-1H-pyrazole-4-carboxamide]",0.4 nM,> 10000 nM,445 nM,0.9 nM
"Cc1nc(N2CC3CC3C2)ccc1Cc1cc(C(=O)N[C@@H]2CCc3c(C)n[nH]c32)sc1C#N (stereo partly drawn) [Example 8, 4-[(6-{3-Azabicyclo[3.1.0]hexan-3-yl}-2-methylpyridin-3-yl)methyl]-5-cyano-N-[(6R)-3-methyl-1H,4H,5H,6H-cyclopenta[c]pyrazol-6-yl]thiophene-2-carboxamide]",3 nM,> 10000 nM,1820 nM,4 nM
"Cc1nc(N2CC3CC3C2)ncc1Cn1cc(C(=O)N[C@@H]2CCc3c(C)n[nH]c32)nn1 (stereo partly drawn) [Example 87, 1-[(2-{3-Azabicyclo[3.1.0]hexan-3-yl}-4-methylpyrimidin-5-yl)methyl]-N-[(6R)-3-methyl-1H,4H,5H,6H-cyclopenta[c]pyrazol-6-yl]-1H-1,2,3-triazole-4-carboxamide]",1 nM,> 10000 nM,1170 nM,2 nM
"Cc1nc(N2CC3(CCC3)C2)ccc1Cn1cc(C(=O)N[C@@H]2CCc3c2n[nH]c3C)cn1 [Example 54, 1-[(6-{2-Azaspiro[3.31]heptan-2-yl}-2-methylpyridin-3-yl)methyl]-N-[(6R)-3-methyl-2H,4H,5H,6H-cyclopenta[c]pyrazol-6-yl]-1H-pyrazole-4-]",1 nM,> 10000 nM,944 nM,2 nM
"Cc1nc(N2CCC3(CCC3)C2)ccc1Cn1cc(C(=O)N[C@@H]2CCc3c2n[nH]c3C)cn1 [Example 36, 1-[(6-{6-Azaspiro[3.4]octan-6-yl}-2-methylpyridin-3-yl)methyl]-N-[(6R)-3-methyl-2H,4H,5H,6H-cyclopenta[c]pyrazol-6-yl]-1H-pyrazole-4-carboxamide]",1 nM,> 10000 nM,4670 nM,4 nM
"Cc1nc(N2CC3CC3C2)ccc1Cn1cc(C(=O)N[C@@H]2CCc3c2n[nH]c3C)c2cc(C(=O)O)ccc21 (stereo partly drawn) [Example 108, 1-[(6-{3-Azabicyclo[3.1.0]hexan-3-yl}-2-methylpyridin-3-yl)methyl]-3-{[(6R)-3-methyl-2H,4H,5H,6H-cyclopenta[c]pyrazol-6-yl]carbamoyl}-1H-indole-5-carboxylic acid]",6 nM,> 10000 nM,776 nM,1 nM
"Cc1nc(N2CC3C(C2)C3(F)F)ccc1Cn1cc(C(=O)N[C@@H]2CCc3c(C)n[nH]c32)cn1 (stereo partly drawn) [Example 5, 1-[(6-{6,6-Difluoro-3-azabicyclo[3.1.0]hexan-3-yl}-2-methylpyridin-3-yl)methyl]-N-[(6R)-3-methyl-1H,4H,5H,6H-cyclopenta[c]pyrazol-6-yl]-1H-pyrazole-4-carboxamide]",0.3 nM,> 10000 nM,241 nM,0.6 nM
"Cc1nc(N2CCCC2)ccc1Cn1cc(C(=O)N[C@@H]2CCc3c2n[nH]c3C)cn1 [Example 52, N-[(6R)-3-Methyl-2H,4H,5H,6H-cyclopenta[c]pyrazol-6-yl]-1-{[2-methyl-6-(pyrrolidin-1-yl)pyridin-3-yl]methyl}-1H-pyrazole-4-carboxamide]",1 nM,> 10000 nM,5120 nM,4 nM
"Cc1nc(N2CC3CC3C2)ccc1Cc1c[nH]c(C(=O)N[C@@H]2CCc3c(C)n[nH]c32)c1 (stereo partly drawn) [Example 7, 4-[(6-{3-Azabicyclo[3.1.0]hexan-3-yl}-2-methylpyridin-3-yl)methyl]-N-[(6R)-3-methyl-1H,4H,5H,6H-cyclopenta[c]pyrazol-6-yl]-1H-pyrrole-2-carboxamide]",0.7 nM,> 10000 nM,342 nM,1 nM
